Reference: patent US20090029992A1, “SUBSTITUTED PYRAZOLE COMPOUNDS” (priority 2007, published 2009)

Legend:
[1] = target: T1, N-terminal His-tagged human Src (Homo sapiens, UniProt P12931); assay: Src kinase inhibition assay (33P-ATP filter assay); type: biochemical
T1 construct: His (N); purchased Upstate USA Inc, 706 Forest Street, Charlottesville, Va

HCT116 cells = assay: Whole cell cytotoxicity assay, Sulforhodamine B; type: cell-based; conditions: Homo sapiens, HCT-116, HCT116, 96 hours incubation, SRB; for IC50: read-out: IC50 values in this assay (HCT116 cell growth); for GI50: read-out: GI50 HCT116 cell growth
Outline: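 HCT116 cells (500/well) in DMEM/10% FBS/2 mM glutamine were preincubated 24 h, then exposed to compound for 96 h at 37 °C, 5% CO2, in duplicate. Cells were fixed with TCA and stained with sulforhodamine B (A570). GI50, TGI and LC50 were derived relative to a time-zero plate and an untreated control.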

recombinant Aurora A = target: T2, recombinant Aurora A (Homo sapiens, UniProt O14965); assay: Aurora A (Aurora 2) inhibition assay, Z'-Lyte kinase assay; type: biochemical; conditions: ATP 10 μM, 1 h
T2 construct: purchased Upstate, Lake Placid, N.Y
T2 sequence (O14965 1-403): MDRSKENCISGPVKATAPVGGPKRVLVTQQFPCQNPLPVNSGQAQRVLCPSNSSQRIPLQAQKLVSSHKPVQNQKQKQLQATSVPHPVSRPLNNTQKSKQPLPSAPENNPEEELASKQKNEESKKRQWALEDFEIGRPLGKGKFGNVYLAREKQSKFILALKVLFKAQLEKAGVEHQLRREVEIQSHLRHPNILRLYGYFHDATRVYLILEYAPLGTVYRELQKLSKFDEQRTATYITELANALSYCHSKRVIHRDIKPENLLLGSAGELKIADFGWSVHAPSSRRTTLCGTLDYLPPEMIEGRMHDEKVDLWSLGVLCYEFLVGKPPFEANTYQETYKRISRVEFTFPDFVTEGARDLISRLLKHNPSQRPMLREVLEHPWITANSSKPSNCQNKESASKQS
Outline: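 Z'-Lyte FRET assay: Aurora A (200-500 ng/mL final), Ser/Thr 1 peptide (2 μM) and ATP (10 μM) in 50 mM HEPES pH 7.5, 10 mM MgCl2, 5 mM EGTA, 0.05% Brij-35, 2 mM DTT, 1 h at room temperature. Coumarin/fluorescein emission ratio converted to percent phosphorylation; dose-response curves plotted.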

[2] = group with IC50 greater than 100 nM

T1 sequence (P12931 whole entry): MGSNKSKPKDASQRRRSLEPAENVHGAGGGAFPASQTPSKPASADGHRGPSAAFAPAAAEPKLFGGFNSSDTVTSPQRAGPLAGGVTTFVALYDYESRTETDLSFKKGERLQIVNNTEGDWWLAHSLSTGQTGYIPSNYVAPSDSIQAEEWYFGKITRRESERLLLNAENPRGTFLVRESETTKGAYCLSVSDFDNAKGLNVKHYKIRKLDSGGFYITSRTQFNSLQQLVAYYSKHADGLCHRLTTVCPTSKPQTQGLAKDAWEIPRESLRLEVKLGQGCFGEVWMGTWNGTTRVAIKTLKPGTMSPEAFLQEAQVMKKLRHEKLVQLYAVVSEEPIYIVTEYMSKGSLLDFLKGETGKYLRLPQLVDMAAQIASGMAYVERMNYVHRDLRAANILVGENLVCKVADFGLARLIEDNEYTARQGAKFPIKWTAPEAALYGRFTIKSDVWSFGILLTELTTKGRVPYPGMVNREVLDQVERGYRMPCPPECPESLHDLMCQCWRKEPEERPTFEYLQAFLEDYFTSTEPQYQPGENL

SMILES | IC50 [1, 2] | IC50 (HCT116 cells) | IC50 (recombinant Aurora A) | IC50 ([1]; 40 minutes at room temperature) | GI50 (HCT116 cells) | IC50 (recombinant Aurora A; [2])
Cc1cc(Nc2cc(NC3CCOCC3)nc(-c3cc(F)ccc3F)n2)n[nH]1 [Example 185, 2-(2,5-difluorophenyl)-N^4-(5-methyl-1H-pyrazol-3-yl)-N^6-(tetrahydro-2H-pyran-4-yl)pyrimidine-4,6-diamine] | ≤ 1000 nM | 1000 to 10000 nM | ≤ 100 nM |  |  | 
Cc1cc(Nc2cc(N3CCN(C)CC3)nc(-c3cccc(N(C)C)c3)n2)n[nH]1 [Compound 86, 2-(3-(dimethylamino)phenyl)-N-(5-methyl-1H-pyrazol-3-yl)-b-(4-methylpiperazin-1-yl)pyrimidin-4-amine] |  |  | ≤ 100 nM | ≤ 100 nM | ≤ 1000 nM | 
Cc1cc(Nc2cc(N3CCN(C)CC3)nc(-c3ccc4ccccc4c3)n2)n[nH]1 [Example 135, N-(5-methyl-1H-pyrazol-3-yl)-6-(4-methylpiperazin-1-yl)-2-(naphthalen-2-yl)pyrimidin-4-amine] |  |  | ≤ 100 nM | ≤ 100 nM | ≤ 1000 nM | 
Cc1cc(Nc2cc(N3CCN(C)CC3)nc(-c3cccc(Cl)c3)n2)n[nH]1 [Compound 36, 2-(3-chlorophenyl)-N-(5-methyl-1H-pyrazol-3-yl)-6-(4-methylpiperazin-1-yl)pyrimidin-4-amine] |  |  | ≤ 100 nM | ≤ 100 nM | ≤ 1000 nM | 
COc1ccc(F)c(-c2nc(Nc3cc(C)[nH]n3)cc(N3CCN(C)CC3)n2)c1 [Example 197, 2-(2-fluoro-5-methoxyphenyl)-N-(5-methyl-1H-pyrazol-3-yl)-6-(4-methylpiperazin-1-yl)pyrimidin-4-amine] |  |  | ≤ 100 nM | ≤ 100 nM | ≤ 1000 nM | 
Cc1cc(Nc2cc(N3CCN(C)CC3)nc(-c3cccc(C)c3C)n2)n[nH]1 [Example 179, 2-(2,3-dimethylphenyl)-N-(5-methyl-1H-pyrazol-3-yl)-6-(4-methylpiperazin-1-yl)pyrimidin-4-amine] | ≤ 1000 nM |  |  |  | ≤ 1000 nM | ≤ 1000 nM
Cc1cc(Nc2cc(NC3CCOCC3)nc(-c3ccc(-c4ccccc4)cc3)n2)n[nH]1 [Example 158, 2-(biphenyl-4-yl)-N^4-(5-methyl-1H-pyrazol-3-yl)-N^6-(tetrahydro-2H-pyran-4-yl)pyrimidine-4,6-diamine] | ≤ 1000 nM | 1000 to 10000 nM |  |  |  | ≤ 1000 nM
Cc1cc(Nc2cc(N3CCN(C)CC3)nc(-c3cc4ccccc4n3C)n2)n[nH]1 [Compound 2, 2-(1-methyl-1H-indol-2-yl)-N-(5-methyl-1H-pyrazol-3-yl)-6-(4-methylpiperazin-1-yl)pyrimidin-4-amine] |  |  | ≤ 100 nM | ≤ 100 nM | ≤ 1000 nM | 
Cc1cc(Nc2cc(NC3CCOCC3)nc(-c3cccc(F)c3)n2)n[nH]1 [Compound 20, 2-(3-fluorophenyl)-N^4-(5-methyl-1H-pyrazol-3-yl)-N^6-(tetrahydro-2H-pyran-4-yl)pyrimidine-4,6-diamine] |  | 1000 to 10000 nM | ≤ 100 nM | ≤ 100 nM |  | 
Cc1cc(Nc2cc(N3CCN(C)CC3)nc(-c3cccc(F)c3)n2)n[nH]1 [Compound 33, 2-(3-fluorophenyl)-N-(5-methyl-1H-pyrazol-3-yl)-6-(4-methylpiperazin-1-yl)pyrimidin-4-amine] |  |  | ≤ 100 nM | ≤ 100 nM | ≤ 1000 nM | 
Cc1cc(Nc2cc(N3CCN(C)CC3)nc(-c3cccc([N+](=O)[O-])c3)n2)n[nH]1 [Example 162, N-(5-methyl-1H-pyrazol-3-yl)-6-(4-methylpiperazin-1-yl)-2-(3-nitrophenyl)pyrimidin-4-amine] |  |  | ≤ 100 nM | ≤ 100 nM | ≤ 1000 nM | 
Cc1cc(Nc2cc(N3CCN(C)CC3)nc(-c3ccc4c(c3)OC(F)(F)O4)n2)n[nH]1 [Example 178, 2-(2,2-difluorobezo[d][1,3]dioxol-5-yl)-N-(5-methyl-1H-pyrazol-3-yl)-6-(4-methylpiperazin-1-yl)pyrimidin-4-amine] |  |  |  | ≤ 100 nM | ≤ 1000 nM | ≤ 1000 nM
Cc1cc(Nc2cc(N3CCN(C)CC3)nc(-c3cccc(OCc4ccccc4)c3)n2)n[nH]1 [Example 188, 2-(3-(benzyloxy)phenyl)-N-(5-methyl-1H-pyrazol-3-yl)-6-(4-methylpiperazin-1-yl)pyrimidin-4-amine] | ≤ 1000 nM | 1000 to 10000 nM | ≤ 100 nM |  |  | 
CCc1ccccc1-c1nc(Nc2cc(C)[nH]n2)cc(N2CCN(C)CC2)n1 [Example 175, 2-(2-ethylphenyl)-N-(5-methyl-1H-pyrazol-3-yl)-6-(4-methylpiperazin-1-yl)pyrimidin-4-amine] | ≤ 1000 nM | 1000 to 10000 nM |  |  |  | ≤ 1000 nM
Cc1cc(Nc2cc(N3CCN(C)CC3)nc(-c3ccc([N+](=O)[O-])cc3)n2)n[nH]1 [Example 164, N-(5-methyl-1H-pyrazol-3-yl)-6-(4-methylpiperazin-1-yl)-2-(4-nitrophenyl)pyrimidin-4-amine] |  | 1000 to 10000 nM |  | ≤ 100 nM |  | ≤ 1000 nM
Cc1cc(Nc2cc(N3CCN(C)CC3)nc(-c3ccco3)n2)n[nH]1 [Compound 14, 2-(furan-2-yl)-N-(5-methyl-1H-pyrazol-3-yl)-6-(4-methylpiperazin-1-yl)-pyrimidin-4-amine] | ≤ 1000 nM | 1000 to 10000 nM |  |  |  | ≤ 1000 nM
Cc1cc(Nc2cc(N3CCN(C)CC3)nc(-c3ccc(C#N)cc3)n2)n[nH]1 [Example 160, 4-(4-(5-methyl-1H-pyrazol-3-ylamino)-6-(4-methylpiperazin-1-yl)pyrimidin-2-yl)benzonitrile] |  |  |  | ≤ 100 nM | ≤ 1000 nM | ≤ 1000 nM
Cc1cc(Nc2cc(N3CCN(C)CC3)nc(-c3cccc(-c4ccccc4)c3)n2)n[nH]1 [Compound 16, 2-(biphenyl-3-yl)-N-(5-methyl-1H-pyrazol-3-yl)-6-(4-methylpiperazin-1-yl)pyrimidin-4-amine] |  |  | ≤ 100 nM | ≤ 100 nM | ≤ 1000 nM | 
Cc1cc(Nc2cc(N(C)CCN(C)C)nc(-c3cccc(Cl)c3)n2)n[nH]1 [Compound 49, 2-(3-chlorophenyl)-N^4-(2-(dimethylamino)ethyl)-N^4-methyl-N^6-(5-methyl-1H-pyrazol-3-yl)pyrimidine-4,6-diamine] |  |  |  | ≤ 100 nM | ≤ 1000 nM | ≤ 1000 nM
COc1cccc(-c2nc(Nc3cc(C)[nH]n3)cc(NC3CCOCC3)n2)c1 [Compound 29, 2-(3-methoxyphenyl)-N^4-(5-methyl-1H-pyrazol-3-yl)-N^6-(tetrahydro-2H-pyran-4-yl)pyrimidine-4,6-diamine] |  | 1000 to 10000 nM | ≤ 100 nM | ≤ 100 nM |  | 
CCc1ccccc1-c1nc(Nc2cc(C)[nH]n2)cc(NC2CCOCC2)n1 [Example 174, 2-(2-ethylphenyl)-N^4-(5-methyl-1H-pyrazol-3-yl)-N^6-(tetrahydro-2H-pyran-4-yl)pyrimidine-4,6-diamine] | ≤ 1000 nM | 1000 to 10000 nM |  |  |  | ≤ 1000 nM
COC(=O)c1cccc(-c2nc(Nc3cc(C)[nH]n3)cc(N3CCN(C)CC3)n2)c1 [Example 166, methyl 3-(4-(5-methyl-1H-pyrazol-3-ylamino)-6-(4-methylpiperazin-1-yl)pyrimidin-2-yl)benzoate] |  |  | ≤ 100 nM | ≤ 100 nM | ≤ 1000 nM | 
COc1cccc(-c2nc(Nc3cc(C)[nH]n3)cc(N3CCN(C)CC3)n2)c1 [Compound 42, 2-(3-methoxyphenyl)-N-(5-methyl-1H-pyrazol-3-yl)-6-(4-methylpiperazin-1-yl)pyrimidin-4-amine] |  |  | ≤ 100 nM | ≤ 100 nM | ≤ 1000 nM | 
Cc1cc(Nc2cc(NCCN3CCOCC3)nc(-c3cc4ccccc4n3C)n2)n[nH]1 [Compound 5, 2-(1-methyl-1H-indol-2-yl)-N^4-(5-methyl-1H-pyrazol-3-yl)-N^6-(2-morpholinoethyl)pyrimidine-4,6-diamine] |  | 1000 to 10000 nM |  | ≤ 100 nM |  | ≤ 1000 nM
COCCN(C)c1cc(Nc2cc(C)[nH]n2)nc(-c2ccccc2)n1 [Example 171, N^4-(2-methoxyethyl)-N^4-methyl-N^6-(5-methyl-1H-pyrazol-3-yl)-2-phenyl pyrimidine-4,6-diamine] | ≤ 1000 nM | 1000 to 10000 nM | ≤ 100 nM |  |  | 
Cc1cc(Nc2cc(N(C)CCN(C)C)nc(-c3ccccc3)n2)n[nH]1 [Compound 9, N^4-(2-(dimethylamino)ethyl)-N^4-methyl-N^6-(5-methyl-1H-pyrazol-3-yl)-2-phenylpyrimidine-4,6-diamine] | ≤ 1000 nM |  |  |  | ≤ 1000 nM | ≤ 1000 nM
